Experimental data: patent US6060448A, “Casein fragments having growth promoting activity” (Pepsyn Limited, priority 1995, dated 2000)

Test system: Rama 27 cells
Assay: incorporation of [3H] thymidine into the DNA of Rama 27 cells (growth promoting / mitogenic assay)
Assay type: cell-based
Conditions: Rama 27 rat mammary fibroblast cell line
Method: The growth promoting activity of different milk types was determined by precipitating caseins and assaying the supernatants for their ability to stimulate the incorporation of [3H] thymidine into the DNA of Rama 27 cells by known methodology (Smith et al, 1984).
The protein fractions A,B,C, of the casein digest where assayed for their ability to stimulate the incorporation of [3H] thymidine into the DNA of Rama 27 cells exactly as described previously.
In table 1, * indicates one unit of activity is defined as the amount of protein required to produce half maximal stimulation compared with 1% FCS when added to R27 cells.

## PDGF
  growth promoting activity (incorporation of 3H-thymidine into DNA): not significantly stimulated
